The source of these data is patent publication US11447504B2, “Macrocyclic chlorine substituted indole derivatives” (Bayer Aktiengesellschaft, priority 2017, dated 2022).

For one series, the system named is HMC-1-8. In words: Antiproliferation assay 7, HMC-1-8. The class given is cell-based. Particulars: HMC-1-8 cells, CellTiter-Glo, read-out: Antiproli HMC-1-8 IC50 median. The method in brief:
(§1)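 Plate cells in treatment and day 0 reference plates; read day 0 plate with CellTiter-Glo after 10 min; incubate treated plates 72 h at 37° C; read them identically.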

The subject of a further series is SUDHL10. In words: Induction of cytotoxicity (Assay 6), SUDHL10.
The target of the next series is BCL-2 (Homo sapiens (Human), UniProt P10415). In words: Protein-protein interaction assay BCL-2/Bad BH3 peptide (BCL-2 Assay, TR-FRET). Particulars: read-out: BCL-2 Assay IC50 (median). The class given is binding. Summed up: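 His-BCL-2 pre-equilibrated with compound 10 min at 22° C., then incubated with Bad BH3 peptide 1 h at 22° C. in dark and overnight at 4° C.; TR-FRET ratio read.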
BCL-2, sequence (P10415 other isoform, or with tags, fused parts or gaps): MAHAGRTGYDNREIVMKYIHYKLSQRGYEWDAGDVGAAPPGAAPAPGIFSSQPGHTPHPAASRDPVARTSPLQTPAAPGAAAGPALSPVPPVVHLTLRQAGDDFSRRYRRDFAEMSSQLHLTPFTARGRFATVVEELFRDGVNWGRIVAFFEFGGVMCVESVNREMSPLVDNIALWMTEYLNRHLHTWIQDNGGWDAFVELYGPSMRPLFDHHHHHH
For orientation: Time-resolved FRET reads energy transfer from a long-lived donor to a nearby acceptor.

Series [1] deals with SUDHL5. In words: Induction of caspase-3/7 activity (Assay 4), SUDHL5. The series is classed as cell-based. Particulars: SUDHL5 cells. Summed up: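 DLBCL cells treated with compounds for 3 hours at 37° C. Caspase-3/7 activity measured by Caspase-Glo 3/7 luminescence, with medium-only background subtracted.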
The test system of series [2] is SUDHL5. In words: Antiproliferation assay 7, SUDHL5. The class given is cell-based. Particulars: SUDHL5 cells, CellTiter-Glo, read-out: Antiproli SUDHL5 IC50 (median). Summed up: as §1
(In general: ATP-based viability assays read luminescence as a measure of living cells.)

Series [3] concerns SUDHL5. In words: Induction of cytotoxicity (Assay 6), SUDHL5.
Setting [4] is: read-out: Cytotox SUDHL10 IC50 (median), SUDHL10 cells, 5 hours, CellTiter-Glo.
[5] abbreviates: 3 hours, Caspase-Glo 3/7, read-out: Caspase SUDHL5 EC50 (median).
Where [6] appears, read: read-out: Cytotox SUDHL5 IC50 (median), SUDHL5 cells, 5 hours, CellTiter-Glo.

Where a name gives a salt, the structure may show the parent alone. Read-outs that look alike come from different tables or passages of the source.

Method for SUDHL10: Assay 6 Induction of Cytotoxicity Upon Treatment of Cells with Selected Compounds
Therefore, cytotoxicity assays were run in parallel in SUDHL5 and SUDHL10 cells.
The different cell lines were plated in culture medium (RPMI 1640 [GIBCO #22400-089]supplemented with 10% Fetal Bovine Serum) at a density of 3,300 cells in 30 μL/well in a sterile, solid black, flat bottom, polystyrene, TC-treated 384-well microplate (Corning #3571) using Multidrop Combi Reagent Dispenser. As a control, medium without cells was also added to the plate. Cells were incubated in a humidified incubator at 37° C. overnight. […] Rim wells were excluded. The cells were incubated for 5 hours in a humidified incubator at 37° C. After this incubation, 30 μL of CellTiter-Glo® Luminescent Cell Viability reagent (Promega, G7573) was added to each well using the Multidrop Combi Reagent Dispenser, followed by 15 minutes incubation on a shaker at room temperature. Finally, luminescence was read at 0.1 ms, with a gain of 3000 using the PHERAstar FS microplate reader (BMG Labtech).

Regarding `Cc1c2c(nn1C)N(C)CCCCCn1c(C(=O)O)c(CCCOc3cccc4cc(F)ccc34)c3ccc(Cl)c-2c31` (racemic) [Example 74, (rac)-4-chloro-7-{3-[(6-fluoronaphthalen-1-yl)oxy]propyl}-2,3,15-trimethyl-10,11,12,13,14,15-hexahydro-2H-pyrazolo[4′,3′:4,5][1,6]diazacycloundecino[3,2,1-hi]indole-8-carboxylic acid], the concentration for half-maximal inhibition (IC50) (usually the point on the concentration scale where inhibition reaches its midpoint) in the series on HMC-1-8 (72 hours) was 5400 nM; with SUDHL10 (setting [4]), 1300 nM; at BCL-2, 19000 nM; in the series on SUDHL5 [2] (72 hours), 810 nM; in the series with SUDHL5 [3] (setting [6]), 1000 nM. Besides, the EC50 – broadly, the concentration needed to bring the measured effect to its halfway point – in the series on SUDHL5 [1] (setting [5]) worked out at 710 nM.

With `Cc1c2c(nn1C)N(C)CCCCCn1c(C(=O)O)c(CCCOc3cccc4ccccc34)c3ccc(Cl)c-2c31` (racemic) [Example 71, (rac)-4-chloro-2,3,15-trimethyl-7-{3-[(naphthalen-1-yl)oxy]propyl}-10,11,12,13,14,15-hexahydro-2H-pyrazolo[4′,3′:4,5][1,6]diazacycloundecino[3,2,1-hi]indole-8-carboxylic acid], the IC50 in the series on HMC-1-8 (72 h) is 22000 nM; in the series with SUDHL10 (Homo sapiens, SU-DHL10, 5 h, read-out: Cytotox SUDHL10 IC50 (median), SUDHL10 cells, 5 hours, CellTiter-Glo), 2700 nM; at BCL-2 it was over 20000 nM; in the series with SUDHL5 [2] (Homo sapiens, SU-DHL-5, 72 h) it was 2000 nM; in the series with SUDHL5 [3] (Homo sapiens, SU-DHL-5, 5 h, read-out: Cytotox SUDHL5 IC50 (median), SUDHL5 cells, 5 hours, CellTiter-Glo), 690 nM. In the series with SUDHL5 [1] (Homo sapiens, SU-DHL-5, 3 h, Caspase-Glo 3/7, read-out: Caspase SUDHL5 EC50 (median)), the 50% effective concentration (EC50) stood at 690 nM.

Regarding `Cc1c2c(nn1C)N(C)CCCCCn1c(C(=O)O)c(CCCOc3cccc4cc(F)ccc34)c3ccc(Cl)c-2c31` [Example 75, (+)-4-chloro-7-{3-[(6-fluoronaphthalen-1-yl)oxy]propyl}-2,3,15-trimethyl-10,11,12,13,14,15-hexahydro-2H-pyrazolo[4′,3′:4,5][1,6]diazacycloundecino[3,2,1-hi]indole-8-carboxylic acid-N-ethylethanamine salt], the IC50 in the series on HMC-1-8 (72 hours) was 3400 nM; with SUDHL10 (setting [4]), 810 nM; on BCL-2, 19000 nM; in the series with SUDHL5 [2] (72 hours), 520 nM; in the series with SUDHL5 [3] (setting [6]), 380 nM. Also, the half-maximal effective concentration (EC50) in the series with SUDHL5 [1] (setting [5]) was 330 nM.

On to `CCc1c2c(nn1C)N(C)CCCCCn1c(C(=O)O)c(CCCOc3cccc4cc(F)ccc34)c3ccc(Cl)c-2c31` (single isomer, unassigned; enantiomer 1) [Example 78, 4-chloro-3-ethyl-7-{3-[(6-fluoronaphthalen-1-yl)oxy]propyl}-2,15-dimethyl-10,11,12,13,14,15-hexahydro-2H-pyrazolo[4′,3′:4,5][1,6]diazacycloundecino[3,2,1-hi]indole-8-carboxylic acid-N-ethylethanamine Salt—Enantiomer 1], for which the IC50 was 2400 nM in the series with HMC-1-8 (72 hours); 700 nM in the series on SUDHL10 (setting [4]); over 20000 nM on BCL-2; 2300 nM in the series with SUDHL5 [2] (Homo sapiens, SU-DHL-5, 72 h); 310 nM with SUDHL5 [3] (setting [6]). Also, the EC50 in the series on SUDHL5 [1] (setting [5]) turned out to be 400 nM.
